The test system of assay [1] is psoriasis lesions (scales) on elbow. Description: Example 1: topical sumatriptan cream on one elbow, then the other, in a subject with chronic psoriasis. Format: in vivo, human. The following applies: cream 0.04% w/w sumatriptan. Here is the method: A subject with chronic psoriasis was administered a cream composed of 0.04% w/w sumatriptan, Dimethicon, Capric Caprylic triglyceride, Mineral oil, Cetyl alcohol & Glyceryl stearate & PEG-75 & Ceteth-20 & Steareth-20, Cetearyl alcohol, Shea butter, Glycerin, Triclosan, Propylene Glycol, Sodium Benzoate, Methylisothiazolinone in water. It was used for five days, once daily, on one elbow. […] No change was observed on psoriasis lesions on the untreated side. The subject was instructed to use the cream once daily on the complementary elbow.

Assay [2] relates to psoriasis scales on both elbows. Description: Example 2: sumatriptan cream on left elbow versus carrier cream on right elbow in the same subject. It is filed as in vivo, human. The text has this:
A subject with scales on both elbows was recruited. The subject used twice daily for 5 days two different creams: • a.
The abovementioned design eliminates the mild possible therapeutic effect of an emollient on scales and healing. The mode of treatment eliminates as well the possibility of self healing or placebo effect.

SMILES strings stand for the structures. Entries after “also recorded” stand apart in the source; their conditions may differ.

For the molecule `CNS(=O)(=O)Cc1ccc2[nH]cc(CCN(C)C)c2c1` [sumatriptan, 1-[3-(2-Dimethylaminoethyl)-1H-indol-5-yl]-N-methyl-methanesulfonamide], the “skin condition of the treated elbow” value in assay [1] (once daily for five days, one elbow) is “Healthy skin with normalization was noted”. For the same molecule, the “scales on the treated elbow” value in assay [1] (once daily for five days, one elbow, person with chronic psoriasis) is “disappearance of scales was prominent on the treated side”. For the same molecule, in assay [1] (once daily, after scale disappearance), the “skin normalization on the complementary elbow” value was “skin turned into normal within the next week”. Also, the “time to scale disappearance on the complementary elbow” value in assay [1] (once daily, complementary elbow) is “three”. Further, the “scales and skin condition of the treated (left) elbow” value in assay [2] (cream 0.04% w/w sumatriptan (40 mg/100 ml), twice daily, four days after start of use, person) was “Disappearance of scales and skin return to normal is noted; also recorded: normalized the skin”. Further, the “duration of remission of psoriasis on the treated elbow” value in assay [2] (cream 0.04% w/w sumatriptan, left elbow) is on record as “about one”. In assay [2] (cream 0.04% w/w sumatriptan, left elbow, counted after the first four days), the “additional time to completed skin normalization” value lay in the range of 4 to 5 days.

For the origin of these results see patent US8680134B2, “Triptans for the treatment of psoriasis” (priority 2009, dated 2014).
